Laboratory results reported in paper PMC12720774, “Detergents alter the stability and lipid binding properties of the CD1d immunoreceptor” (Protein Science : A Publication of the Protein Society, 2025).
Where “and” joins values, the source holds several entries; their conditions need not be identical. Equal values may be shown once.

Tests used:
[1] = target: T1, CSP 319‐328/HLA‐B*08:01/hβ2M complex (Homo sapiens, UniProt P01889, A93T/A95T/D138N/E176V/E187T/K202T/Q94N/R180D/S35A/V36M/Y33D/Y91F); assay: nanoDSF with peptide/HLA complex; assay type: binding; settings: for nanoDSF melting temperature of peptide/HLA: peptide/HLA with Tween 20, replicates
T1 construct: made in house
Text: (§1) To determine whether detergent effects were specific to hCD1d, we performed analogous ITF, MST, and nanoDSF experiments with a peptide/HLA complex. HLA‐B*08:01, presenting the Plasmodium falciparum derived peptide […] ([…]), was selected as a representative model system since the peptide antigen contains hydrophilic solvent‐exposed residues in the antigen‐binding groove (Frooman et al., [2025]). Although structurally similar to that of hCD1d, HLA‐B*08:01 shares low sequence identity (Figure S10a). […] By nanoDSF, ODG caused minimal destabilization of either complex (ΔT m≈−0.2 to −0.8°C; Figure S10f). […] We posit that lipid‐specific unloading effects of detergent are due to either hydrophobic residues in the antigen binding groove (detergent‐CD1d interactions) and/or the hydrophobic nature of the lipid antigen (detergent‐lipid interactions).
(§2) For comparison with peptide/HLA molecules, we prepared recombinant CSP 319‐328/HLA‐B*08:01/hβ2M complex using in vitro refolding methods fully described previously (Frooman et al., [2025]). The peptide sequence for CSP 319–328 is […]. This peptide was chosen since it contains Lys, Gln, and Asp residues predicted to be solvent‐exposed in the HLA‐B*08:01 binding groove (Frooman et al., [2025]).
NanoDSF experiments with peptide/HLA molecules and detergents were performed using an analogous protocol.

CD1c = system: CD1c; set-up: method as in Mansour et al., 2016; settings: ref Mansour et al., 2016; cited from earlier work
[2] = target: T1, CSP 319‐328/HLA‐B*08:01/hβ2M complex; assay: ITF with peptide/HLA complex; assay type: binding; settings: for ITF change in Trp fluorescence (F-F0/F0): peptide/HLA with Tween 20, replicates
Text: as §1, §2
ITF experiments with peptide/HLA molecules and detergents were performed using an analogous protocol.

[3] = target: T1, CSP 319‐328/HLA‐B*08:01/hβ2M complex; assay: MST with peptide/HLA complex; assay type: binding; settings: for MST normalized fluorescence signal (Fnorm): peptide/HLA with Tween 20, replicates
Text: as §1, §2
MST experiments with peptide/HLA molecules and detergents were performed using an analogous protocol.

[4] = concentration 6.25e-5 (unit not given)
[5] = concentration 0.000125 (unit not given)
[6] = concentration 0.00025 (unit not given)

## Tween 20
[1]; absence vs maximum concentration of detergent, 1 μM peptide/HLA
  ΔT m (nanoDSF), peptide/HLA: ≈ −0.3 °C
[1]; concentration 0.030518 (unit not given)
  nanoDSF melting temperature of peptide/HLA: 55.19 and 55.32 and 55.37
[1]; concentration 0.061035 (unit not given)
  nanoDSF melting temperature of peptide/HLA: 55.29 and 55.45 and 55.24
[1]; concentration 0.12207 (unit not given)
  nanoDSF melting temperature of peptide/HLA: 55.51 and 55.26 and 55.3
[1]; concentration 0.244141 (unit not given)
  nanoDSF melting temperature of peptide/HLA: 55.15 and 55.36 and 55.47
[1]; concentration 0.488281 (unit not given)
  nanoDSF melting temperature of peptide/HLA: 55.37 and 55.28 and 55.18
[1]; concentration 0.976563 (unit not given)
  nanoDSF melting temperature of peptide/HLA: 55.33 and 55.35 and 55.37
[1]; concentration 1.95312 (unit not given)
  nanoDSF melting temperature of peptide/HLA: 55.37 and 55.15
[1]; concentration 3.90625 (unit not given)
  nanoDSF melting temperature of peptide/HLA: 55.29 and 55.17 and 55.23
[1]; concentration 7.8125 (unit not given)
  nanoDSF melting temperature of peptide/HLA: 55.43 and 55.31 and 55.36
[1]; concentration 15.625 (unit not given)
  nanoDSF melting temperature of peptide/HLA: 55.24 and 55.22 and 55.41
[1]; concentration 31.25 (unit not given)
  nanoDSF melting temperature of peptide/HLA: 55.63 and 55.25 and 55.23
[1]; concentration 62.5 (unit not given)
  nanoDSF melting temperature of peptide/HLA: 55.32 and 55.31 and 55.25
[1]; concentration 125 (unit not given)
  nanoDSF melting temperature of peptide/HLA: 55.13 and 55.18 and 55.19
[1]; concentration 250 (unit not given)
  nanoDSF melting temperature of peptide/HLA: 55.22 and 55.06 and 55.24
[1]; concentration 500 (unit not given)
  nanoDSF melting temperature of peptide/HLA: 54.35 and 55.14 and 54.93
[1]; concentration 1000 (unit not given)
  nanoDSF melting temperature of peptide/HLA: 55.13 and 54.89 and 54.93
CD1c
  stripping of lipid antigens from CD1c (in words): could efficiently strip lipid antigens away
[2]; 100 nM peptide/HLA, 25°C, read-out: K D (ITF), peptide/HLA
  Kd: 7.7 ± 0.8 µM
[2]; concentration 3.05e-8 (unit not given)
  ITF change in Trp fluorescence (F-F0/F0): 0
[2]; concentration 6.1e-8 (unit not given)
  ITF change in Trp fluorescence (F-F0/F0): -0.0537 and 0.114 and 0.0797
[2]; concentration 1.22e-7 (unit not given)
  ITF change in Trp fluorescence (F-F0/F0): 0.119 and -0.000172 and -0.0554
[2]; concentration 2.44e-7 (unit not given)
  ITF change in Trp fluorescence (F-F0/F0): -0.00869 and 0.126 and 0.0688
[2]; concentration 4.88e-7 (unit not given)
  ITF change in Trp fluorescence (F-F0/F0): 0.121 and 0.101 and 0.0628
[2]; concentration 9.77e-7 (unit not given)
  ITF change in Trp fluorescence (F-F0/F0): 0.12 and -0.0283 and -0.0494
[2]; concentration 1.95e-6 (unit not given)
  ITF change in Trp fluorescence (F-F0/F0): 0.159 and 0.0122 and -0.04
[2]; concentration 3.91e-6 (unit not given)
  ITF change in Trp fluorescence (F-F0/F0): 0.0962 and 0.218 and 0.169
[2]; concentration 7.81e-6 (unit not given)
  ITF change in Trp fluorescence (F-F0/F0): 0.176 and 0.206 and 0.0921
[2]; concentration 1.56e-5 (unit not given)
  ITF change in Trp fluorescence (F-F0/F0): 0.336 and 0.182 and 0.11
[2]; concentration 3.13e-5 (unit not given)
  ITF change in Trp fluorescence (F-F0/F0): 0.356 and 0.339 and 0.0994
[2]; [4]
  ITF change in Trp fluorescence (F-F0/F0): 0.189 and 0.365 and 0.248
[2]; [5]
  ITF change in Trp fluorescence (F-F0/F0): 0.38 and 0.23 and 0.139
[2]; [6]
  ITF change in Trp fluorescence (F-F0/F0): 0.261 and 0.271 and 0.181
[3]; 100 nM AF647‐labeled peptide/HLA, 25°C, read-out: K D (MST), peptide/HLA
  Kd: 10.1 ± 2.8 µM
[3]; concentration 3.05176e-8 (unit not given)
  MST normalized fluorescence signal (Fnorm): 826.857 and 829.996 and 831.035
[3]; concentration 6.10352e-8 (unit not given)
  MST normalized fluorescence signal (Fnorm): 827.636 and 831.405 and 830.579
[3]; concentration 1.2207e-7 (unit not given)
  MST normalized fluorescence signal (Fnorm): 825.955 and 829.58 and 832.602
[3]; concentration 2.44141e-7 (unit not given)
  MST normalized fluorescence signal (Fnorm): 826.8 and 829.861 and 831.726
[3]; concentration 4.88281e-7 (unit not given)
  MST normalized fluorescence signal (Fnorm): 824.798 and 829.349 and 832.449
[3]; concentration 9.76563e-7 (unit not given)
  MST normalized fluorescence signal (Fnorm): 827.728 and 832.261 and 832.695
[3]; concentration 1.95313e-6 (unit not given)
  MST normalized fluorescence signal (Fnorm): 829.662 and 834.525 and 833.392
[3]; concentration 3.90625e-6 (unit not given)
  MST normalized fluorescence signal (Fnorm): 826.877 and 835.214 and 835.492
[3]; concentration 7.8125e-6 (unit not given)
  MST normalized fluorescence signal (Fnorm): 836.072 and 833.005 and 835.4
[3]; concentration 1.5625e-5 (unit not given)
  MST normalized fluorescence signal (Fnorm): 830.346 and 831.213 and 835.161
[3]; concentration 3.125e-5 (unit not given)
  MST normalized fluorescence signal (Fnorm): 838.975 and 840.638 and 846.826
[3]; [4]
  MST normalized fluorescence signal (Fnorm): 839.005 and 846.034 and 849.234
[3]; [5]
  MST normalized fluorescence signal (Fnorm): 840.518 and 838.062 and 842.957
[3]; [6]
  MST normalized fluorescence signal (Fnorm): 834.255 and 840.226 and 843.206
[3]; concentration 0.0005 (unit not given)
  MST normalized fluorescence signal (Fnorm): 839.953 and 837.123 and 843.815
[3]; concentration 0.001 (unit not given)
  MST normalized fluorescence signal (Fnorm): 833.107 and 838.64 and 841.342
